Measurements taken from US20220002314A1 (priority 2018, published 2022).
Read-outs that look alike come from different tables or passages of the source.

Assays:
Human μ-opioid receptor = Human μ-opioid receptor (Homo sapiens, UniProt P35372); experiment: biochemical; type: binding
[1] = biological target: Human α2δ-1 subunit of Cav2.2 calcium channel (Homo sapiens, UniProt P54289); experiment: biochemical; type: binding
Chain of Human α2δ-1 subunit of Cav2.2 calcium channel (P54289 25-1103): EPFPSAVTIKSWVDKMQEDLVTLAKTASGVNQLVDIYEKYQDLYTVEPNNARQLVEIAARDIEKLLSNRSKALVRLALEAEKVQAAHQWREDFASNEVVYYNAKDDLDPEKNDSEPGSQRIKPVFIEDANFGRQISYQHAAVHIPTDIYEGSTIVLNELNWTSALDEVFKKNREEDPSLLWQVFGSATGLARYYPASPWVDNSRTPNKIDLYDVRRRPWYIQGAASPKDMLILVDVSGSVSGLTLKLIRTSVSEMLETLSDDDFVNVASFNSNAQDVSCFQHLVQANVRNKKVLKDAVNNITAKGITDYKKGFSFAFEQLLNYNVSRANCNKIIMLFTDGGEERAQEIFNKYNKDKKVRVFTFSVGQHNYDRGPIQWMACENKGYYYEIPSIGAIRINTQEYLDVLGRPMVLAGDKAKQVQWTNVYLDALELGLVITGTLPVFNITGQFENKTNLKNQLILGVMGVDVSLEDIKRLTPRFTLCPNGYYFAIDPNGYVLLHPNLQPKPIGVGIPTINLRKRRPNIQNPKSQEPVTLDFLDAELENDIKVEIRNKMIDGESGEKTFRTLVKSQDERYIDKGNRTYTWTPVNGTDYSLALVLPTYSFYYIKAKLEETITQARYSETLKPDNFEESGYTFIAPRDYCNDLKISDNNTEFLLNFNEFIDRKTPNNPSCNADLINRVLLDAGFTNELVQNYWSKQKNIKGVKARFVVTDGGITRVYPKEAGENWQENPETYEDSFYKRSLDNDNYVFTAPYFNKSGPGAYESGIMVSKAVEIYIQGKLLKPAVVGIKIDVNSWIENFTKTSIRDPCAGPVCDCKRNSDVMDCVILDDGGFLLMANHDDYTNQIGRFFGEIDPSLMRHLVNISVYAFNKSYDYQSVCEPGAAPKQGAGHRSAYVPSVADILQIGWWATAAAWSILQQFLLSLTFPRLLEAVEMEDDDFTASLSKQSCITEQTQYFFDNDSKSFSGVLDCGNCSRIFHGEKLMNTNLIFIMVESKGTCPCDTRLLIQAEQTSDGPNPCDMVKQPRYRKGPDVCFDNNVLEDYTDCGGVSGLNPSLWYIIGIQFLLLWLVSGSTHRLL

Chain of Human μ-opioid receptor (P35372 whole entry): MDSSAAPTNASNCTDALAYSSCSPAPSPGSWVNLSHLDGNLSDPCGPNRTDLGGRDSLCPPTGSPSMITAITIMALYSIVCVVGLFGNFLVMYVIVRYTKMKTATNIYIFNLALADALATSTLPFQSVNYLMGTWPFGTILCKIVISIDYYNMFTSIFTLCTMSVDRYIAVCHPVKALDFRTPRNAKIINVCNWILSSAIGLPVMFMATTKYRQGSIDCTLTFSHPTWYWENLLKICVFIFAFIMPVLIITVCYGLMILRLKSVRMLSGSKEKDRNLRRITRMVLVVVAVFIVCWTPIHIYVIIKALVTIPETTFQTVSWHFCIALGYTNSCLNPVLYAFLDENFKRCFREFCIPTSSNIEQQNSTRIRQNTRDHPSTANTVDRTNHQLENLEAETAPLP

## CCC[C@@H](c1nc2cc(F)c(Cl)cc2c(=O)n1CC)N1CCN[C@@H](C)C1 [Example 54, 6-chloro-3-ethyl-7-fluoro-2-((S)-1-((S)-3-methylpiperazin-1-yl)butyl)quinazolin-4(3H)-one]
Human μ-opioid receptor
  Ki: > 500 nM
[1]
  Ki: > 5000 nM

## CCC[C@H](c1nc2ccc(Br)cc2c(=O)n1CC)N1CCN[C@H](CF)C1 [Example 55, 6-Bromo-3-ethyl-2-((R)-1-((S)-3-(fluoromethyl)piperazin-1-yl)butyl)quinazolin-4(3H)-one]
Human μ-opioid receptor
  Ki: > 500 nM
[1]
  Ki: < 500 nM

## CCC[C@@H](c1nc2ccc(Br)cc2c(=O)n1CC)N1CCN[C@@H](CF)C1 [Example 56, 6-bromo-3-ethyl-2-((S)-1-((R)-3-(fluoromethyl)piperazin-1-yl)butyl)quinazolin-4(3H)-one]
Human μ-opioid receptor
  Ki: > 500 nM
[1]
  Ki: > 5000 nM

## CCC[C@@H](c1nc2ccc(Br)cc2c(=O)n1CC)N1CCN[C@H](CF)C1 [Example 57, 6-bromo-3-ethyl-2-((S)-1-((S)-3-(fluoromethyl)piperazin-1-yl)butyl)quinazolin-4(3H)-one]
Human μ-opioid receptor
  Ki: > 500 nM
[1]
  Ki: < 500 nM

## CCC[C@H](c1nc2ccc(Br)cc2c(=O)n1CC)N1CCN[C@H](CO)C1 [Example 58, 6-Bromo-3-ethyl-2-((R)-1-((S)-3-(hydroxymethyl)piperazin-1-yl)butyl)quinazolin-4(3H)-one]
Human μ-opioid receptor
  Ki: > 500 nM
[1]
  Ki: < 500 nM

## CCC[C@@H](c1nc2ccc(Br)cc2c(=O)n1CC)N1CCN[C@H](CO)C1 [Example 59, 6-bromo-3-ethyl-2-((S)-1-((S)-3-(hydroxymethyl)piperazin-1-yl)butyl)quinazolin-4(3H)-one]
Human μ-opioid receptor
  Ki: > 500 nM
[1]
  Ki: > 5000 nM

## CCC[C@H](c1nc2ccc(Br)cc2c(=O)n1CC)N1CCN[C@@H](CO)C1 [Example 60, 6-bromo-3-ethyl-2-((R)-1-((R)-3-(hydroxymethyl)piperazin-1-yl)butyl)quinazolin-4(3H)-one]
Human μ-opioid receptor
  Ki: > 500 nM
[1]
  Ki: < 500 nM

## CCC[C@@H](c1nc2ccc(Br)cc2c(=O)n1CC)N1CCN[C@@H](CO)C1 [Example 61, 6-bromo-3-ethyl-2-((S)-1-((R)-3-(hydroxymethyl)piperazin-1-yl)butyl)quinazolin-4(3H)-one]
Human μ-opioid receptor
  Ki: > 500 nM
[1]
  Ki: > 5000 nM

## CCC[C@H](c1nc2cc(F)c(Br)cc2c(=O)n1C)N1CCN[C@@H](C)C1 [Example 62, 6-Bromo-7-fluoro-3-methyl-2-((R)-1-((S)-3-methylpiperazin-1-yl)butyl)quinazolin-4(3H)-one]
Human μ-opioid receptor
  Ki: 100 to 500 nM
[1]
  Ki: < 500 nM

## CCC[C@@H](c1nc2cc(F)c(Br)cc2c(=O)n1C)N1CCN[C@@H](C)C1 [Example 63, 6-bromo-7-fluoro-3-methyl-2-((S)-1-((S)-3-methylpiperazin-1-yl)butyl)quinazolin-4(3H)-one]
Human μ-opioid receptor
  Ki: > 500 nM
[1]
  Ki: > 5000 nM

## CCC[C@H](c1nc2ccncc2c(=O)n1CC)N1CCN[C@H](C)C1 [Example 64, 3-Ethyl-2-((R)-1-((R)-3-methylpiperazin-1-yl)butyl)pyrido[4,3-d]pyrimidin-4(3H)-one]
Human μ-opioid receptor
  Ki: > 500 nM
[1]
  Ki: < 500 nM

## CCC[C@@H](c1nc2ccncc2c(=O)n1CC)N1CCN[C@H](C)C1 [Example 65, 3-ethyl-2-((S)-1-((R)-3-methylpiperazin-1-yl)butyl)pyrido[4,3-d]pyrimidin-4(3H)-one]
Human μ-opioid receptor
  Ki: > 500 nM
[1]
  Ki: > 5000 nM

## CCC[C@H](c1nc2ccncc2c(=O)n1CC)N1CCN[C@@H](C)C1 [Example 66, 3-Ethyl-2-((R)-1-((S)-3-methylpiperazin-1-yl)butyl)pyrido[4,3-d]pyrimidin-4(3H)-one]
Human μ-opioid receptor
  Ki: > 500 nM
[1]
  Ki: < 500 nM

## CCC[C@@H](c1nc2ccncc2c(=O)n1CC)N1CCN[C@@H](C)C1 [Example 67, 3-ethyl-2-((S)-1-((S)-3-methylpiperazin-1-yl)butyl)pyrido[4,3-d]pyrimidin-4(3H)-one]
Human μ-opioid receptor
  Ki: > 500 nM
[1]
  Ki: > 5000 nM

## CCC[C@H](c1nc2ncc(Br)cc2c(=O)n1CC)N1CCN[C@@H](C)C1 [Example 68, 6-Bromo-3-ethyl-2-((R)-1-((S)-3-methylpiperazin-1-yl)butyl)pyrido[2,3-d]pyrimidin-4(3H)-one]
Human μ-opioid receptor
  Ki: > 500 nM
[1]
  Ki: < 500 nM

## CCC[C@@H](c1nc2ncc(Br)cc2c(=O)n1CC)N1CCN[C@@H](C)C1 [Example 69, 6-bromo-3-ethyl-2-((S)-1-((S)-3-methylpiperazin-1-yl)butyl)pyrido[2,3-d]pyrimidin-4(3H)-one]
Human μ-opioid receptor
  Ki: > 500 nM
[1]
  Ki: > 5000 nM

## CCC[C@H](c1nc2cccnc2c(=O)n1CC)N1CCN[C@@H](C)C1 [Example 70, 3-Ethyl-2-((R)-1-((S)-3-methylpiperazin-1-yl)butyl)pyrido[3,2-d]pyrimidin-4(3H)-one]
Human μ-opioid receptor
  Ki: > 500 nM
[1]
  Ki: < 500 nM

## CCC[C@@H](c1nc2cccnc2c(=O)n1CC)N1CCN[C@@H](C)C1 [Example 71, 3-ethyl-2-((S)-1-((S)-3-methylpiperazin-1-yl)butyl)pyrido[3,2-d]pyrimidin-4(3H)-one]
Human μ-opioid receptor
  Ki: > 500 nM
[1]
  Ki: > 5000 nM

## CCC[C@H](c1nc2ncc(Br)cc2c(=O)n1CCC)N1CCN[C@@H](C)C1 [Example 72, 6-Bromo-2-((R)-1-((S)-3-methylpiperazin-1-yl)butyl)-3-propylpyrido[2,3-d]pyrimidin-4(3H)-one]
Human μ-opioid receptor
  Ki: > 500 nM
[1]
  Ki: < 500 nM

## CCC[C@@H](c1nc2ncc(Br)cc2c(=O)n1CCC)N1CCN[C@@H](C)C1 [Example 73, 6-bromo-2-((S)-1-((S)-3-methylpiperazin-1-yl)butyl)-3-propylpyrido[2,3-d]pyrimidin-4(3H)-one]
Human μ-opioid receptor
  Ki: > 500 nM
[1]
  Ki: > 5000 nM

## CCC[C@@H](c1nc2ncc(Br)cc2c(=O)n1CC1CC1)N1CCN[C@@H](C)C1 [Example 74, 6-Bromo-3-(cyclopropylmethyl)-2-((S)-1-((S)-3-methylpiperazin-1-yl)butyl)pyrido[2,3-d]pyrimidin-4(3H)-one]
Human μ-opioid receptor
  Ki: > 500 nM
[1]
  Ki: > 5000 nM

## CCC[C@H](c1nc2ncc(Br)cc2c(=O)n1CC1CC1)N1CCN[C@@H](C)C1 [Example 75, 6-bromo-3-(cyclopropylmethyl)-2-((R)-1-((S)-3-methylpiperazin-1-yl)butyl)pyrido[2,3-d]pyrimidin-4(3H)-one]
Human μ-opioid receptor
  Ki: > 500 nM
[1]
  Ki: < 500 nM

## CCC[C@H](c1nc2ncc(Cl)cc2c(=O)n1CC)N1CCN[C@@H](C)C1 [Example 76, 6-Chloro-3-ethyl-2-((R)-1-((S)-3-methylpiperazin-1-yl)butyl)pyrido[2,3-d]pyrimidin-4(3H)-one]
Human μ-opioid receptor
  Ki: 100 to 500 nM
[1]
  Ki: < 500 nM

## CCC[C@@H](c1nc2nc(C(F)(F)F)ccc2c(=O)n1CC)N1CCN[C@@H](C)C1 [Example 77, 3-Ethyl-2-((S)-1-((S)-3-methylpiperazin-1-yl)butyl)-7-(trifluoromethyl)pyrido[2,3-d]pyrimidin-4(3H)-one]
Human μ-opioid receptor
  Ki: > 500 nM
[1]
  Ki: > 5000 nM

## CCC[C@H](c1nc2nc(C(F)(F)F)ccc2c(=O)n1CC)N1CCN[C@@H](C)C1 [Example 78, 3-ethyl-2-((R)-1-((S)-3-methylpiperazin-1-yl)butyl)-7-(trifluoromethyl)pyrido[2,3-d]pyrimidin-4(3H)-one]
Human μ-opioid receptor
  Ki: > 500 nM
[1]
  Ki: < 500 nM

## CCCC(c1nc2ccc(Br)cc2c(=O)n1CC)N1CCNCC1 (stereo not shown) [Example 79, 6-Bromo-3-ethyl-2-(1-(piperazin-1-yl)butyl)quinazolin-4(3H)-one]
Human μ-opioid receptor
  Ki: > 500 nM
[1]
  Ki: < 500 nM

## CCCC(c1nc2ccccc2c(=O)n1C)N1CCNCC1 (stereo not shown) [Example 80, 3-methyl-2-(1-(piperazin-1-yl)butyl)quinazolin-4(3H)-one]
Human μ-opioid receptor; read-out: μ-binding
  Ki: > 500 nM
[1]; read-out: α2δ-1 binding
  Ki: 500 to 5000 nM

## CCCC(c1nc2cc(Br)ccc2c(=O)n1CC)N1CCNCC1 (stereo not shown) [Example 81, 7-bromo-3-ethyl-2-(1-(piperazin-1-yl)butyl)quinazolin-4(3H)-one]
Human μ-opioid receptor
  Ki: > 500 nM
[1]
  Ki: < 500 nM

## CCCC(c1nc2ccc(Br)cc2c(=O)n1CCC)N1CCNCC1 (stereo not shown) [Example 82, 6-bromo-2-(1-(piperazin-1-yl)butyl)-3-propylquinazolin-4(3H)-one]
Human μ-opioid receptor
  Ki: 100 to 500 nM
[1]
  Ki: < 500 nM

## CCCC(c1nc2cc(F)c(Br)cc2c(=O)n1CC)N1CCNCC1 (stereo not shown) [Example 83, 6-bromo-3-ethyl-7-fluoro-2-(1-(piperazin-1-yl)butyl)quinazolin-4(3H)-one]
Human μ-opioid receptor
  Ki: 100 to 500 nM
[1]
  Ki: < 500 nM

## CCCC(c1nc2ccc(Br)c(C)c2c(=O)n1CC)N1CCNCC1 (stereo not shown) [Example 84, 6-bromo-3-ethyl-5-methyl-2-(1-(piperazin-1-yl)butyl)quinazolin-4(3H)-one]
Human μ-opioid receptor
  Ki: 100 to 500 nM
[1]
  Ki: 500 to 5000 nM

## CCCC(c1nc2cc(C)c(Br)cc2c(=O)n1CC)N1CCNCC1 (stereo not shown) [Example 85, 6-bromo-3-ethyl-7-methyl-2-(1-(piperazin-1-yl)butyl)quinazolin-4(3H)-one]
Human μ-opioid receptor
  Ki: > 500 nM
[1]
  Ki: < 500 nM

## CCCC(c1nc2cc(F)c(F)cc2c(=O)n1CC)N1CCNCC1 (stereo not shown) [Example 86, 3-ethyl-6,7-difluoro-2-(1-(piperazin-1-yl)butyl)quinazolin-4(3H)-one]
Human μ-opioid receptor
  Ki: > 500 nM
[1]
  Ki: < 500 nM

## CCCC(c1nc2c(F)cc(Br)cc2c(=O)n1CC)N1CCNCC1 (stereo not shown) [Example 87, 6-bromo-3-ethyl-8-fluoro-2-(1-(piperazin-1-yl)butyl)quinazolin-4(3H)-one]
Human μ-opioid receptor
  Ki: 100 to 500 nM
[1]
  Ki: 500 to 5000 nM

## CCCC(c1nc2ccc(Br)c(F)c2c(=O)n1CC)N1CCNCC1 (stereo not shown) [Example 88, 6-bromo-3-ethyl-5-fluoro-2-(1-(piperazin-1-yl)butyl)quinazolin-4(3H)-one]
Human μ-opioid receptor
  Ki: > 500 nM
[1]
  Ki: < 500 nM

## CCCC(c1nc2c(C)cc(Br)cc2c(=O)n1CC)N1CCNCC1 (stereo not shown) [Example 89, 6-bromo-3-ethyl-8-methyl-2-(1-(piperazin-1-yl)butyl)quinazolin-4(3H)-one]
Human μ-opioid receptor
  Ki: < 100 nM
[1]
  Ki: > 5000 nM

## CCCC(c1nc2c(Cl)cc(F)cc2c(=O)n1CC)N1CCNCC1 (stereo not shown) [Example 90, 8-chloro-3-ethyl-6-fluoro-2-(1-(piperazin-1-yl)butyl)quinazolin-4(3H)-one]
Human μ-opioid receptor
  Ki: 100 to 500 nM
[1]
  Ki: > 5000 nM

## CCCC(c1nc2ccc(Br)c(Cl)c2c(=O)n1CC)N1CCNCC1 (stereo not shown) [Example 91, 6-bromo-5-chloro-3-ethyl-2-(1-(piperazin-1-yl)butyl)quinazolin-4(3H)-one]
Human μ-opioid receptor
  Ki: 100 to 500 nM
[1]
  Ki: < 500 nM
